Test results: ChEMBL document CHEMBL1201862, “PubChem BioAssay data set” (2004)
Calls of active or inactive are those of the source.

Assays:
Large T antigen = Large T antigen (Simian virus 40, UniProt P03070); type: functional, Betapolyomavirus macacae;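 further: Confirmatory-stage PubChem screen for compounds that inhibit SV40 T antigen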
[1] = target: Heat shock protein HSP 90-alpha (Homo sapiens, UniProt P07900); type: functional, organism-based
[2] = A549 cell cytotoxicity, dose response, cytotoxicity control, plate reader, cherry-pick, antagonist series (AID 743412); type: functional, cell-based
[3] = toxicity toward HepG2 liver cells – cell-based, plate reader, cherry-pick, antagonist series, cytotoxicity control, dose response (AID 743416); type: functional
[4] = viability loss in HEK293 cells – cell-based, plate reader, cherry-picked samples, cytotoxicity control, dose response (AID 743446); type: functional
[5] = blockade of melanocortin 4 receptor signaling – cell-based, plate reader, cherry pick, counter-screen for LGR2 antagonist project, dose response (AID 743444); type: functional;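 further: transfected HEK 293 cells stimulated with alpha-MSH peptide; potency of inhibitors of the alpha-MSH evoked signal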
[6] = target: T1, Replicative DNA helicase DnaB (Mycobacterium tuberculosis, UniProt P9WMR3); test: DnaB intein splicing inhibitors, dose response, biochemical, cell-free fluorescence (AID 449749); type: functional
T1 sequence (P9WMR3 whole entry): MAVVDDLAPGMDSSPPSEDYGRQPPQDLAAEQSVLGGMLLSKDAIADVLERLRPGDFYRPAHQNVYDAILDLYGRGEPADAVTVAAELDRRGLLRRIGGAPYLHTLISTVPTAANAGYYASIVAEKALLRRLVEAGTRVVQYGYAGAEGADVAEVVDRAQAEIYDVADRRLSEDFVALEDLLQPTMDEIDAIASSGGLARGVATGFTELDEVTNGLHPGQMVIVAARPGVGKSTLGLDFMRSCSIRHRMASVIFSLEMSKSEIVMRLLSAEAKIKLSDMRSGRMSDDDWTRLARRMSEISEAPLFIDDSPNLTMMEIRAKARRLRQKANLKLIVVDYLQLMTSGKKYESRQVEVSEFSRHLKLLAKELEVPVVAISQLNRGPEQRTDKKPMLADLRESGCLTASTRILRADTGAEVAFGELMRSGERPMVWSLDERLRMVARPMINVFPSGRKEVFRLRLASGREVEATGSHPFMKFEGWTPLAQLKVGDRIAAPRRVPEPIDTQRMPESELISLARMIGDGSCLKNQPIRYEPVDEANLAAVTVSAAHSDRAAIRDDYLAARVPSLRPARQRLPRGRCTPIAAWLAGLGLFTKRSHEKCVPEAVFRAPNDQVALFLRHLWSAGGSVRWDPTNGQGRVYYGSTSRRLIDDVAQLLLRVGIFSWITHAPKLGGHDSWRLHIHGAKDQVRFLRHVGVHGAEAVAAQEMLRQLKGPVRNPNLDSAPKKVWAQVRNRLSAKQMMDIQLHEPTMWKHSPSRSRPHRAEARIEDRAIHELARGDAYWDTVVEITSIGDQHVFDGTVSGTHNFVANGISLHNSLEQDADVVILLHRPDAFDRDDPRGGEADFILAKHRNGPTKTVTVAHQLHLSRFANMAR

[7] = target: Glyceraldehyde-3-phosphate dehydrogenase (Homo sapiens, UniProt P04406)
Chain of Glyceraldehyde-3-phosphate dehydrogenase (P04406 whole entry): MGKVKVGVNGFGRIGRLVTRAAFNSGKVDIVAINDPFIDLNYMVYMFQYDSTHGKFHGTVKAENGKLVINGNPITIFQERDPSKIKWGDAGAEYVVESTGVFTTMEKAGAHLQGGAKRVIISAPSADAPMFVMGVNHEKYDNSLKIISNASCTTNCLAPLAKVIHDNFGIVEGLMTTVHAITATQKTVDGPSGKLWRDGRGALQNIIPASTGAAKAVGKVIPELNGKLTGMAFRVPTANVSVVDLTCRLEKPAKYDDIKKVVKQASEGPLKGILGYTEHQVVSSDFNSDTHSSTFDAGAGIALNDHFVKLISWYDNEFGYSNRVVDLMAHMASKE

Genome polyprotein = Genome polyprotein (dengue virus type 2, UniProt P29990); test: flavivirus cap methylation enzyme inhibition – biochemical, confirmation dose response, primary screen (AID 588689); type: functional
Chain of Genome polyprotein (P29990 2492-3391 limits assumed): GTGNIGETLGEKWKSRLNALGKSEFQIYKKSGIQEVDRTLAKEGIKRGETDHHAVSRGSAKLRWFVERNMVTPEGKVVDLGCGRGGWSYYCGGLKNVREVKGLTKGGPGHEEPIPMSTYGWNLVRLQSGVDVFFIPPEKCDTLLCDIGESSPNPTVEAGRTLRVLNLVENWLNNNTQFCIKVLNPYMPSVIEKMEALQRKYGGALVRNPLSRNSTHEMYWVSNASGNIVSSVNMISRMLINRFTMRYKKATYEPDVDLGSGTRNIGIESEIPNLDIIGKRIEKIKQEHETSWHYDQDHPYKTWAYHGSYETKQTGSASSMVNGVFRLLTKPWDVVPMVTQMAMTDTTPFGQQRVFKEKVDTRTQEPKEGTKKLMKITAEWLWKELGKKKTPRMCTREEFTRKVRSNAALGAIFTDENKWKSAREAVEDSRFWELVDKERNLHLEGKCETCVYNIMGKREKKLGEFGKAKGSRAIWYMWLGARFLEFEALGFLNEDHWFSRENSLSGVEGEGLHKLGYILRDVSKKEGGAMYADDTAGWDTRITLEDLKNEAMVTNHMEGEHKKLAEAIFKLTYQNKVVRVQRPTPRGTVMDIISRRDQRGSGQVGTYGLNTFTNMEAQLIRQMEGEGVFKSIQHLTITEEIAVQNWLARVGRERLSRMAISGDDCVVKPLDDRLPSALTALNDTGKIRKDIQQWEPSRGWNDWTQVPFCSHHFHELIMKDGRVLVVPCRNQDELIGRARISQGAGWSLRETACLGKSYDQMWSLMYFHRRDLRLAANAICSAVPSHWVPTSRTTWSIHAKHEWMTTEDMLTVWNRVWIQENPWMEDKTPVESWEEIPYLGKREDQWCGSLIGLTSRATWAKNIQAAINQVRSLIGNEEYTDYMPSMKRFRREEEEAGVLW

Protein RecA = target: T2, Protein RecA (Mycobacterium tuberculosis, UniProt P9WHJ3); test: Fluorescence Cell-Free Homogeneous Dose Retest to Identify Inhibitors of RecA-Intein Splicing Activity. [Related pubchem assays (depositor defined):AID2097, AID2223, AID489010, AID492950]; type: functional
T2 sequence (P9WHJ3 whole entry): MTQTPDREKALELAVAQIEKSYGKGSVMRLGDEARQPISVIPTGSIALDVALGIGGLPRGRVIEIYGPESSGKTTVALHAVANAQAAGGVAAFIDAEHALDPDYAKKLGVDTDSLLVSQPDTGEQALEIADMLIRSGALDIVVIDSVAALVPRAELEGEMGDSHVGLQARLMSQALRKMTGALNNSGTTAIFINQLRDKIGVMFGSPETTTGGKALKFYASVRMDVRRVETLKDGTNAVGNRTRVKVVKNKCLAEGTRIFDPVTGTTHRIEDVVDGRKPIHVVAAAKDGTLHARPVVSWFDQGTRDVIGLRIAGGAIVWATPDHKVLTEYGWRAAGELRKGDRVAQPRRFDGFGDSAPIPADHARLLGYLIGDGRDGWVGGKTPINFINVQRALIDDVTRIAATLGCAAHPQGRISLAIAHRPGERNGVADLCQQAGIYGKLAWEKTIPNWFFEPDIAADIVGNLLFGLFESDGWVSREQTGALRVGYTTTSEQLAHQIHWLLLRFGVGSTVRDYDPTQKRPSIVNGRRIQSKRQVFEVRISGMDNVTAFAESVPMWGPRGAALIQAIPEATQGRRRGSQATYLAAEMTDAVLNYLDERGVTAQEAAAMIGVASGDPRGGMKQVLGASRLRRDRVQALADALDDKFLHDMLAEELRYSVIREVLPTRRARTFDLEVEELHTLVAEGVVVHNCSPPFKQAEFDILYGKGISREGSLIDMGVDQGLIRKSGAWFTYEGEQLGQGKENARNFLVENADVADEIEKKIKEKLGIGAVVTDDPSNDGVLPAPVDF

[8] = target: T3, Trace amine-associated receptor 1 (Homo sapiens, UniProt Q96RJ0); test: Fluorescence-based cell-based high throughput dose response assay to identify agonists of the human trace amine associated receptor 1 (TAAR1).; type: functional
T3 sequence (Q96RJ0 whole entry): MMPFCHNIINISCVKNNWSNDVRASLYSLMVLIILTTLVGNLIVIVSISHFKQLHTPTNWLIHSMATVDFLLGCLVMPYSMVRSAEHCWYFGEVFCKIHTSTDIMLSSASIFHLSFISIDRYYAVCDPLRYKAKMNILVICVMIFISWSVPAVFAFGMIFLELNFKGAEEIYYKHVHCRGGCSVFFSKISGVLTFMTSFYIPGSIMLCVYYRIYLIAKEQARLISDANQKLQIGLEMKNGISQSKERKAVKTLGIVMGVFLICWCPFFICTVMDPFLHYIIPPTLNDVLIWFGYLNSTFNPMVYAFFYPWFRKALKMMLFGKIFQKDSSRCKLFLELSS

[9] = Trypanosoma cruzi growth suppression in host cells – NIH3T3 host cells, beta-gal luminescence, confirmation (AID 2044); type: functional, cell-based;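 further: intracellular parasites grown in NIH/3T3 mouse fibroblasts as host cells; luminescent beta-galactosidase reporter signal from transgenic T. cruzi replicating inside host cells; inhibitors lower the luminescence signal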
[10] = target: T3, Trace amine-associated receptor 1; test: Counterscreen for agonists of the human trace amine associated receptor 1 (hTAAR1): Fluorescence-based cell-based high throughput dose response assay to identify hTAAR1 agonist that also desensitize TAAR1 receptor response.; type: functional
cells [11] = type: functional, cell-based
[12] = NIH3T3 cell viability loss – ATP luminescence, mouse fibroblasts, counter-screen, dose response (AID 2010); type: functional, cell-based;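 further: cells exposed to compound for about 90 hours before reading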
cells [13] = type: functional, cell-based; remark: listed apart in the source
[14] = microbe, parasite or virus in culture; type: functional; conditions: Mycobacterium tuberculosis
[15] = target: T4, Oxysterols receptor LXR-beta (Homo sapiens, UniProt P55055); type: functional, cell-based;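 further: agonist activity at LXR measured by a cell-based luminescence readout across a dose range, run as a counterscreen for daf-12 agonists; HEK293 cells with Gal4-LXR fusion and GAL4-driven luciferase reporter; potency for activation of Gal4-LXR reporter so compounds are agonists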
T4 sequence (P55055 whole entry): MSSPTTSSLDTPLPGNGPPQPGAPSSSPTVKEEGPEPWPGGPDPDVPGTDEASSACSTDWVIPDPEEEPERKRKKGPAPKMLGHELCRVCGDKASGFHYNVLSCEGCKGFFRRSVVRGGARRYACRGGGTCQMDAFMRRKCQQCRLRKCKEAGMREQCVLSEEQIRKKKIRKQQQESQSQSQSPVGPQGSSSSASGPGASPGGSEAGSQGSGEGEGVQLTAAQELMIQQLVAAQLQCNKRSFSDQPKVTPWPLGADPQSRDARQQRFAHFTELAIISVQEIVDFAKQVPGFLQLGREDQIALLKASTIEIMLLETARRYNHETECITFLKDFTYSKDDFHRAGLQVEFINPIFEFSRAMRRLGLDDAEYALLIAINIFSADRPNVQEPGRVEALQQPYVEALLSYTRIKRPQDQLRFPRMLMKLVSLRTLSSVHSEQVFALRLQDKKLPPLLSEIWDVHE

Caspase-6 = target: T5, Caspase-6 (Homo sapiens, UniProt P55212); test: inhibition of CASP6 peptide cleavage – biochemical, VEID-R110 fluorescence, cherry-pick, dose response (AID 720632)
T5 sequence (P55212 whole entry): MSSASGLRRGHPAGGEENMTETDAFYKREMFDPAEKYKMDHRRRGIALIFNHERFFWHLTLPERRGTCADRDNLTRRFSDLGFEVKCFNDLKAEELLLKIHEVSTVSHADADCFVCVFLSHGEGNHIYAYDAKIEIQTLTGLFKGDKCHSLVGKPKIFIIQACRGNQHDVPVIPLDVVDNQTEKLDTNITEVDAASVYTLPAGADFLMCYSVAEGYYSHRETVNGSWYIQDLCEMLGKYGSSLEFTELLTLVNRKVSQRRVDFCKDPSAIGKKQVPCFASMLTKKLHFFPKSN

[16] = HEK-293T viability loss after treatment – luminescence, T-cell screen hits, cytotoxicity control for TCR NF-kB inhibitor project, dose response (AID 489026); type: functional, cell-based;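 further: cells exposed to compound about 14 hours before the viability readout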
[17] = target: FAD-linked sulfhydryl oxidase ALR (Homo sapiens, UniProt P55789); test: ALR-catalysed DTT oxidation blockers – biochemical, H2O2 detection, luminescence, cherry-pick, dose response (AID 493248)
Chain of FAD-linked sulfhydryl oxidase ALR (P55789 whole entry): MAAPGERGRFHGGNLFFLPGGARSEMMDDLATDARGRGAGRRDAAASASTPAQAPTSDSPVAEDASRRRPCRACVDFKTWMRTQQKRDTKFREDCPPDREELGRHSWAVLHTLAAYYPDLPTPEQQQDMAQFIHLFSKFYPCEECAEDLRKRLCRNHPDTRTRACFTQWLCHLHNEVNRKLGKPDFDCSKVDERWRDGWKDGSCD

[18] = reduction of Shn3 3'UTR-driven luciferase in osteoblasts – cell-based, Clone20 osteoblasts, firefly luciferase, cherry-picked, dose response (AID 624132); type: functional;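 further: firefly luciferase luminescence from reporter carrying the Shn3 3'UTR in osteoblasts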
[19] = loss of viability in HepG2 cells – cell-based, CellTiter-Glo, cherry-picked, cytotoxicity control for Shn3 inhibitor project, dose response (AID 624134); type: functional
[20] = non-specific 3'UTR reporter inhibition in Clone20-Shn3RL – cell-based, Renilla luciferase, cherry-picked, counter-screen for Shn3 inhibitor project, dose response (AID 624133); type: functional
[21] = blockers of bursicon-stimulated LGR2 cAMP reporter – cell-based, HEK293, CRE-luciferase reporter, cherry pick, set 2, dose response (AID 743343); type: functional;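 further: transfected cells were stimulated with diluted bursicon conditioned medium after compound addition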

Chain of Large T antigen (P03070 whole entry): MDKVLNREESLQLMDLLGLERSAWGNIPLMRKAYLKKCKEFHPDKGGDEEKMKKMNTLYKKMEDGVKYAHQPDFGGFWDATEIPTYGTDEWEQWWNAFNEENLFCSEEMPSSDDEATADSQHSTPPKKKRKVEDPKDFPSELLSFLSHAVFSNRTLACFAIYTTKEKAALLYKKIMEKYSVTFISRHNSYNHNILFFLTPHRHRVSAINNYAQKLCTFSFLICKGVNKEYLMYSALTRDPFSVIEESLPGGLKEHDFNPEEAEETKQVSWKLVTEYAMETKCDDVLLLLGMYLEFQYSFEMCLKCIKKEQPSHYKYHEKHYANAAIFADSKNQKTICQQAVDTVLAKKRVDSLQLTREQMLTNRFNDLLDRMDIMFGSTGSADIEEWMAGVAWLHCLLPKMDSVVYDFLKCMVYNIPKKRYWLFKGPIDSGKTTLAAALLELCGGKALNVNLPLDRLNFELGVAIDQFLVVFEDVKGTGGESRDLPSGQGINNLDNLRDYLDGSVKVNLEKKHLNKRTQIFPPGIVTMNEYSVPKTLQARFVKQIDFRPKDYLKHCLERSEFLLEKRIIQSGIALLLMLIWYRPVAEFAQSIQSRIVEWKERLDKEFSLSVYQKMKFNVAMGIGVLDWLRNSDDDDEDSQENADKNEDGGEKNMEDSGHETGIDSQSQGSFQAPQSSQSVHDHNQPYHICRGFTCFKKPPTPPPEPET

CC[C@H](C)/C=C/C1=CC2=C(Cl)C(=O)[C@@]3(C)OC(=O)C(C(=O)[C@H](C)[C@@H](C)O)=C3C2=CO1
IC50 (Large T antigen): 44 µM (active) | AC50 [1]: 7.41 µM (active)

CC1CCN(C(=O)c2ccc(S(=O)(=O)Cc3cc(F)ccc3F)c([N+](=O)[O-])c2)CC1
AC50 [2]: 25.4 µM (active) | AC50 [3]: > 52 µM (inactive) | AC50 [4]: 31.7 µM (active) | AC50 [5]: 53.6 µM (active)

O=C1CC(N2CCC(c3nc4ccccc4o3)CC2)C(=O)N1c1ccc(Cl)c(C(F)(F)F)c1 (configuration not stated)
AC50 [1]: 2.08 µM (active)

Cc1cccc(N2C(=O)C(Cl)=C(N3CCOCC3)C2=O)c1
AC50 [6]: 6.69 µM (active) | IC50 [7]: > 50 µM (inconclusive) | IC50 (Genome polyprotein): 34.5 µM (active) | EC50 (Protein RecA): 1.9 µM (active)

OC(COC(c1ccc(Cl)cc1)c1ccc(Cl)cc1)CN1CCc2ccccc2C1 (configuration not stated)
AC50 [6]: 2.26 µM (active) | EC50 [8]: 2.13 µM (active) | EC50 [9]: 2.16 µM (active) | EC50 (Protein RecA): 81.5 µM (active) | IC50 [10]: 9.26 µM (active) | IC50 (cells [11]): 12.1 µM (inactive) | EC50 [12]: > 60 µM (inconclusive) | EC50 (cells [13]): > 29.9 µM (inactive) | CC50 [14]: 34.7 µM (active)

Cc1cnc(NC(=O)COc2ccc3c(c2)CCC3)s1
EC50 [15]: > 67.6 µM (inactive)

O=C(O)c1ccc(N=Nc2c(O)[nH]c3cc(Cl)ccc23)cc1
AC50 (Caspase-6): 49.4 µM (active)

O=C(O)C1C2CCC(C2)C1C(=O)NCCC1=CCCCC1 (configuration not stated)
EC50 [8]: 6.32 µM (active) | IC50 [10]: > 29.9 µM (inactive) | IC50 (cells [11]): > 29.9 µM (inactive) | EC50 (cells [13]): > 29.9 µM (inactive)

COc1cccc(NC(=N)N)c1
EC50 [8]: 1.87 µM (active) | IC50 [10]: 5.04 µM (active) | IC50 (cells [11]): > 29.9 µM (inactive) | EC50 (cells [13]): > 29.9 µM (inactive)

CCN1C(=O)/C(=C/Nc2ccccc2)SC1=S
EC50 [15]: > 67.5 µM (inactive)

C/C(=C\C(=O)c1sccc1Cl)N(C)C
EC50 [15]: > 67.6 µM (inactive)

Nc1c2c(nc3sc4c(c13)CCCC4)CCCCC2
EC50 [15]: > 67.6 µM (inactive)

O=C(COC(=O)Cc1ccccc1)Nc1cc(S(=O)(=O)N2CCCCC2)ccc1Cl
AC50 (Caspase-6): 38.3 µM (active)

CC1(C)Cc2nc3sc4c(=O)n(CC(=O)NCc5ccccc5)cnc4c3cc2CO1
IC50 [16]: > 80 µM (inactive)

COc1cc(/C=C2\SC(=S)N(CC(=O)O)C2=O)ccc1OS(=O)(=O)c1ccc(C)cc1
AC50 [17]: 2.07 µM (active) | AC50 (Caspase-6): 46.2 µM (active)

O=[N+]([O-])/C=C/c1c(Cl)cccc1Cl
AC50 [1]: 1.12 µM (active)

Nc1cc2cccnc2cc1Cl
AC50 (Caspase-6): 25.6 µM (active)

Cc1cccc(C)c1-n1nnnc1C(c1cc2ccccc2o1)N1CCC(n2c(O)nc3ccccc32)CC1 (configuration not stated)
AC50 [18]: 3.05 µM (active) | AC50 [19]: 2.97 µM (active) | AC50 [2]: 6.22 µM (active) | AC50 [3]: 1.98 µM (active) | AC50 [4]: 4.96 µM (active) | AC50 [5]: 3.33 µM (active) | AC50 [20]: 4.09 µM (active) | AC50 [21]: 3.43 µM (active)

COc1ccc(-c2nn(-c3ccccc3)cc2C(=O)N2CCN(S(=O)(=O)c3ccccc3[N+](=O)[O-])CC2)cc1
AC50 [1]: 3.97 µM (active)

COc1cccc(C)c1NC1=NCCO1
EC50 [8]: 0.734 µM (active) | IC50 [10]: 4.12 µM (active) | IC50 (cells [11]): > 29.9 µM (inactive) | EC50 (cells [13]): > 29.9 µM (inactive)

CCSCC(C)(C)n1[nH]c2ccccc2c1=O
EC50 [15]: > 67.6 µM (inactive)

COc1ccccc1NC(=O)N1CCCCN2[C@@H](CO)[C@H](c3ccc(-c4cccc(F)c4)cc3)[C@@H]2C1
AC50 [2]: 18.6 µM (active) | AC50 [3]: 19 µM (active) | AC50 [4]: > 52 µM (inactive) | AC50 [5]: 52.2 µM (active) | AC50 [21]: 64.7 µM (active)

O=C(CNC(=O)c1ccccc1F)N/N=C\C=C\c1ccccc1
EC50 [8]: > 29.9 µM (inactive) | IC50 [10]: 9.57 µM (active) | IC50 (cells [11]): > 29.9 µM (inactive) | EC50 (cells [13]): > 29.9 µM (inactive)
